According to patent publication US20250017922A1, “BIFUNCTIONAL COMPOUNDS FOR DEGRADING BTK WITH ENHANCED IMID ACTIVITY” (NURIX THERAPEUTICS, INC., priority 2021, published 2025):

Tests used:
Aiolos = target: T1, Aiolos (Homo sapiens, UniProt Q96SW2+Q9UKT9); test: Aiolos degradation in human PBMCs, flow cytometry (IMiD activity); assay type: cell-based; conditions: 24 hours; for DC50: Aiolos degradation; for Dmax: read-out: Dmax (maximum percent Aiolos degradation)
T1 construct: endogenous in cells; host or cells: human PBMCs (CD20+CD3- B cells, CD3+CD20- T cells)
Method: Frozen human peripheral blood mononuclear cells (PBMCs) were thawed and treated with DMSO or compound for 24 hours and then fixed and permeabilized using a Foxp3/Transcription Factor Fixation/Permeabilization Kit (eBioscience, 00-5523). Cells were stained with fluorophore-conjugated antibodies against CD20 (Biolegend 302330), CD3 (BD Pharmingen 552127), and Aiolos (Biolegend 371106). An additional set of DMSO-treated PBMCs was stained for CD20, CD3, and an AlexaFluor 647-conjugated mouse IgG1 isotype control antibody (Biolegend 400136). Stained cells were run on an Attune NxT Acoustic Focusing Flow Cytometer (Thermo-Fisher A29004), and data was analyzed using FlowJo (v10.5.3) and GraphPad Prism (v7.00) software. Single lymphocytes were gated for B cells (CD20+CD3−) and T cells (CD3+CD20−), and the geometric mean fluorescence intensity (MFI) of Aiolos was calculated for each population. The MFI of the isotype control was calculated for each population and used to quantify background staining. Percent Aiolos degradation was calculated for each compound-treated sample using the following equation: […]
DC50 is the compound concentration degrading […] of Aiolos. Dmax is the maximum percent Aiolos degradation in the assay.

arthritis = test: Arthritis model, clinical arthritis score and body weight; assay type: in vivo, mice; conditions: daily oral treatment at 30 mg/kg, compared to dexamethasone and vehicle
Method: Significance of clinical arthritis score (A) was determined from the area under the curve (AUC) of mean paw scores calculated for individual mice. (C) Serum levels of anti-type II collagen IgG. Statistical significance was determined between vehicle control and treated groups with one-way Kruskal-Wallis ANOVA and Dunn's multiple comparisons test.

BTK = target: T2, BTK (Homo sapiens, UniProt Q06187); test: BTK degradation and anti-tumor activity in preclinical models; assay type: in vivo
T2 construct: host or cells: preclinical models (not described)

Ikaros = target: T3, Ikaros (Homo sapiens, UniProt Q13422+Q96SW2); test: Ikaros degradation in patient PBMCs, Western blot (Jess Simple Western); assay type: in vivo; conditions: Cycle 1 Day 8
T3 construct: from tissue; host or cells: patient PBMCs, lysed after in vivo dosing
Method: Frozen patient PBMCs collected at baseline and at Cycle 1 Day 8 were processed into protein lysate and degradation of cereblon neo-substrate Ikaros was determined using Western blot via Jess™ Simple Western automated system. […] Patients receiving 300 mg Compound 5, 75.2-95.7% Ikaros degradation was detected.
Frozen PBMCs from patients were prepared and Ikaros protein levels were assessed using Western blot via Jess™ Simple Western automated system.
FIG. 7A, densitometric analysis of Ikaros degradation in all patients were obtained after normalization to β-actin and % Ikaros degradation was calculated relative to Baseline values from each patient.
For Ikaros degradation assessment, patient PBMCs were lysed in lysis buffer RIPA buffer (Fisher, PI89901), complete Mini EDTA-free protease inhibitor (Sigma 11836170001), Protease Inhibitor Cocktail (Sigma, P2714) and Phosphatase Inhibitor Cocktail 2 and 3 (Sigma, P5726 and P0044) and stored overnight at −80° C. Cells were then thawed and centrifuged for 5 min at 8000×g and lysate supernatants were transferred to a fresh tube. Protein levels were determined by BCA Assay performed according to manufacturer's protocol (EMD Millipore, cat. no. 71285-3). A total of 3 μg protein was loaded and 1:50 dilution of primary anti-Ikaros (Cell Signaling Technology, cat. 14859) and 1:50 anti-β-Actin (Cell Signaling Technology, cat. 8457) was used. […]

T1 sequence (Q9UKT9 whole entry): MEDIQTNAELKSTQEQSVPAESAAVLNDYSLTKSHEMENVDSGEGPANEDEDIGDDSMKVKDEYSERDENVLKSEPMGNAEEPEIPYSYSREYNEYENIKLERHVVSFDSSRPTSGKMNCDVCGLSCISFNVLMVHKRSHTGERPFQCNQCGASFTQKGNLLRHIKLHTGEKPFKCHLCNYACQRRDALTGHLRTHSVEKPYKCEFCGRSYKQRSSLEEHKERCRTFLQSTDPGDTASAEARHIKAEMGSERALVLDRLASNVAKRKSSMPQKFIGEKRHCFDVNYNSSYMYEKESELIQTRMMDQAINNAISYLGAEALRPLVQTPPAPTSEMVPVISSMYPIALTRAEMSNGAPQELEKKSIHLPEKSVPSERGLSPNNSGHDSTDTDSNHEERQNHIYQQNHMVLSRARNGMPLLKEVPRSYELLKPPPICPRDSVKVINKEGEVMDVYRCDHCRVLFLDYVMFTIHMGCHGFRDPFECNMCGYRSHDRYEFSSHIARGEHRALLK
T1 sequence (Q96SW2 whole entry): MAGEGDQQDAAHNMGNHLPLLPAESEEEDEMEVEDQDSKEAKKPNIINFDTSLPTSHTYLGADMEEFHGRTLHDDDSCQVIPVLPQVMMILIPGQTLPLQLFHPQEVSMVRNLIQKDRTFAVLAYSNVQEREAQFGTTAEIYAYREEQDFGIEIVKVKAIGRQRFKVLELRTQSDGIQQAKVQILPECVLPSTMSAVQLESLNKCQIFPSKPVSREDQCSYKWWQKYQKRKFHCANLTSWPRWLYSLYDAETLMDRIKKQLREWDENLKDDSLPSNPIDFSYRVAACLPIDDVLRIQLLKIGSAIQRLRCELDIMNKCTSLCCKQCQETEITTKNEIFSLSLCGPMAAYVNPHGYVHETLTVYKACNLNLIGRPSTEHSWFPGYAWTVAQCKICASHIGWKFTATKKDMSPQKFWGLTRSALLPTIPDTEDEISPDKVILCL
T1 sequence (Q16531 whole entry partner): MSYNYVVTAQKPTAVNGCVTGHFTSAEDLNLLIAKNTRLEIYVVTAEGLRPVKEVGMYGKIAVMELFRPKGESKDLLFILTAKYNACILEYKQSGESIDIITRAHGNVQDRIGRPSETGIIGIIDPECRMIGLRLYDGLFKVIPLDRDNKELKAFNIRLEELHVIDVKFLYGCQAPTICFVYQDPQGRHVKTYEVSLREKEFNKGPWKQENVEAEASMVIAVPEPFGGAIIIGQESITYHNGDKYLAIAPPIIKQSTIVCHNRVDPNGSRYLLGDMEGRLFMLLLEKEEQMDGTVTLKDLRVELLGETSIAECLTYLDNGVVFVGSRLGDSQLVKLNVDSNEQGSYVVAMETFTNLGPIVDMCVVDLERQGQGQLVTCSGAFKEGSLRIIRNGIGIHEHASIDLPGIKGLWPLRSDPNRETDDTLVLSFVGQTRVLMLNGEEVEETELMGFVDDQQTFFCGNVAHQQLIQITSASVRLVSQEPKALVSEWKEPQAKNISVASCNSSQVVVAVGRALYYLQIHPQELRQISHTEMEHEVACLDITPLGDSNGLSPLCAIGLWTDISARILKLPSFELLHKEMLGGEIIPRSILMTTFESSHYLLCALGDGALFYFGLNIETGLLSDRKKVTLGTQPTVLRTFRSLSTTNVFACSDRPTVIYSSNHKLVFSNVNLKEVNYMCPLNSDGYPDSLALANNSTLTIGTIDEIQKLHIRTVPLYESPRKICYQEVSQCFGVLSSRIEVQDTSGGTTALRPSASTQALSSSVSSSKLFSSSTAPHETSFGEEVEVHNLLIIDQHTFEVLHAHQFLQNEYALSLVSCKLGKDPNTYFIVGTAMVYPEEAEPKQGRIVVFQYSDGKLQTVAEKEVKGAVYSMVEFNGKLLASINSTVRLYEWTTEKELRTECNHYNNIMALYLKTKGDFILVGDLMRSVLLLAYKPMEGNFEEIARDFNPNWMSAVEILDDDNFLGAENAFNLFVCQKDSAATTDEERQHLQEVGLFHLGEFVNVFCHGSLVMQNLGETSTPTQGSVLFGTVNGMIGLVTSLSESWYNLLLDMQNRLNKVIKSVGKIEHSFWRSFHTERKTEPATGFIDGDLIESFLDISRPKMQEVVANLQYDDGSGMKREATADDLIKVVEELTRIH
T3 sequence (Q13422 whole entry): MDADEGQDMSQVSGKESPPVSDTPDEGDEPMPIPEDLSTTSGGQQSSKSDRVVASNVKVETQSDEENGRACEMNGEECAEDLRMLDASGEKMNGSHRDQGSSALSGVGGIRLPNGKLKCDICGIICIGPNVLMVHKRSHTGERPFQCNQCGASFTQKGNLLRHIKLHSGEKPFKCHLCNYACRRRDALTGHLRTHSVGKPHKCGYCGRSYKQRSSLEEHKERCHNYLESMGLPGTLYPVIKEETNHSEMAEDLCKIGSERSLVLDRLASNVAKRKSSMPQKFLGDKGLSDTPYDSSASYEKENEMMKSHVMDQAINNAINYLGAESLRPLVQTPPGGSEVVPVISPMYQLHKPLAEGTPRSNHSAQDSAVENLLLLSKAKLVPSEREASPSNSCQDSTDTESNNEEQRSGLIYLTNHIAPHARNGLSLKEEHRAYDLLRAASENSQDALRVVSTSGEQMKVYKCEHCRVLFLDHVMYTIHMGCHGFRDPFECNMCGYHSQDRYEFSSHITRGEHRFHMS
T3 sequence (Q96SW2 whole entry): as the sequence (Q96SW2 whole entry) above
T3 sequence (Q16531 whole entry partner): as the sequence (Q16531 whole entry partner) above
T2 sequence (Q06187 whole entry, species assumed): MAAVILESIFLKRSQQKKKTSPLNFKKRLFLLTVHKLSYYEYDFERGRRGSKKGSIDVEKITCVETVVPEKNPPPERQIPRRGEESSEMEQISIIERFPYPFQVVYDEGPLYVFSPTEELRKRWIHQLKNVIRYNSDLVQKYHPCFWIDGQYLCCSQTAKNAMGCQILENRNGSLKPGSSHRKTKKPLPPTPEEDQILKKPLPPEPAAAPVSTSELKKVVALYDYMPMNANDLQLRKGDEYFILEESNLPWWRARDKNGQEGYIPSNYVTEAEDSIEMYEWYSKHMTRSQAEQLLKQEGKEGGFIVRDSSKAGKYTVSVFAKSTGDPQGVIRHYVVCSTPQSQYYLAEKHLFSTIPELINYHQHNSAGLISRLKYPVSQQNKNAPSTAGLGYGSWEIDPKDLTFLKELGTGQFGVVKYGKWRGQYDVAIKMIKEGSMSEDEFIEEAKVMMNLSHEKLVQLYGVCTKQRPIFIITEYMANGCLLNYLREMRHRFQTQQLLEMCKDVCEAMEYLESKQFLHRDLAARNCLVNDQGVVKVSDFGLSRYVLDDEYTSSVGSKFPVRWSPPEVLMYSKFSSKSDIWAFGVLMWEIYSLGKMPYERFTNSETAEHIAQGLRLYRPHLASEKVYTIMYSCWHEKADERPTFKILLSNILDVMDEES

SMILES | DC50 (Aiolos) [nM] | Dmax (Aiolos) [%] | body weight loss (arthritis) | BTK degradation (BTK) [%] | Ikaros degradation (Ikaros; patients receiving 300 mg) | Ikaros degradation (Ikaros; patients receiving either 100 or 200 mg)
CN1CCN([C@@H]2CCCN(c3cnc(C(N)=O)c(Nc4ccc(C5CCN(CC6CCN(c7ccc8c(c7)C(=O)N(C7CCC(=O)NC7=O)C8=O)CC6)CC5)cc4)n3)C2)C1=O (stereo partly drawn) [Compound 14] | 11 | 74 | – | – | – | –
CN1CCN([C@@H]2CCCN(c3cnc(C(N)=O)c(Nc4ccc(OCCCNc5ccc6c(c5)C(=O)N(C5CCC(=O)NC5=O)C6=O)cc4)n3)C2)C1=O (stereo partly drawn) [Compound 16] | 24 | 95.7 | – | – | – | –
NC(=O)c1ncc(N2CCCCC2)nc1Nc1ccc(C2CCN(C[C@@H]3CCN(c4ccc5c(c4)C(=O)N(C4CCC(=O)NC4=O)C5=O)C3)CC2)cc1 (stereo partly drawn) [Compound 5] | 22 | 89.1 | minimal body weight loss | ≥ 80 | 75.2-95.7% | 26.1-60.5%
CN1CCN([C@@H]2CCCN(c3cnc(C(N)=O)c(Nc4ccc(C5CCN(C[C@H]6CC[C@H](Nc7cccc8c7C(=O)N(C7CCC(=O)NC7=O)C8=O)CC6)CC5)cc4)n3)C2)C1=O (stereo partly drawn) [Compound 3] | 93 | 84.9 | – | – | – | –
CN1CCN([C@@H]2CCCN(c3cnc(C(N)=O)c(Nc4ccc(C5(C)CCN(C(=O)CCOCCC(=O)Nc6cccc7c6CN(C6CCC(=O)NC6=O)C7=O)CC5)cc4)n3)C2)C1=O (stereo partly drawn) [Compound 17] | 560 | 51.9 | – | – | – | –
CN1CCN([C@H]2CCCN(c3cnc(C(N)=O)c(Nc4cnn(C5CCN(CC6CN(c7ccc8c(c7)C(=O)N(C7CCC(=O)NC7=O)C8=O)C6)CC5)c4)n3)C2)C1=O (stereo partly drawn) [Compound 6] | 23 | 70.8 | – | – | – | –
CN1CCN([C@@H]2CCCN(c3cnc(C(N)=O)c(Nc4ccc(N5CCN(CCCCc6cccc7c6CN(C6CCC(=O)NC6=O)C7=O)CC5)cc4)n3)C2)C1=O (stereo partly drawn) [Compound 18] | 9 | 81.6 | – | – | – | –
NC(=O)c1ncc(N2CCCCC2)nc1Nc1ccc2c(c1)CCN(C[C@H]1CCN(c3ccc4c(c3)C(=O)N(C3CCC(=O)NC3=O)C4=O)C1)C2 (stereo partly drawn) [Compound 1] | 27 | 77.4 | – | – | – | –
CN1CCN([C@@H]2CCCN(c3cnc(C(N)=O)c(Nc4ccc(C5CCN(C(=O)CCOCCNc6cccc7c6C(=O)N(C6CCC(=O)NC6=O)C7=O)CC5)cc4)n3)C2)C1=O (stereo partly drawn) [Compound 19] | 1 | 98.6 | – | – | – | –
CN1CCN([C@@H]2CCCN(c3cnc(C(N)=O)c(Nc4ccc(N5CCN(C[C@@H]6[C@H]7CN(c8ccc9c(c8)C(=O)N(C8CCC(=O)NC8=O)C9=O)C[C@@H]67)CC5)cc4)n3)C2)C1=O (stereo partly drawn) [Compound 12] | 7 | 65.1 | – | – | – | –
CN1CCN([C@H]2CCCN(c3cnc(C(N)=O)c(Nc4ccc5c(c4)CCN(CC4CN(c6ccc7c(c6)C(=O)N(C6CCC(=O)NC6=O)C7=O)C4)C5)n3)C2)C1=O (stereo partly drawn) [Compound 7] | 4 | 98.2 | – | – | – | –
CN1CCN([C@@H]2CCCN(c3cnc(C(N)=O)c(Nc4ccc(C5CCN(C[C@H]6CCN(c7ccc8c(c7)C(=O)N(C7CCC(=O)NC7=O)C8=O)C6)CC5)cc4)n3)C2)C1=O (stereo partly drawn) [Compound 13] | 33 | 73.9 | – | – | – | –
CN1CCN([C@@H]2CCCN(c3cnc(C(N)=O)c(Nc4ccc5c(c4)CCN(CC4CCN(c6ccc7c(c6)C(=O)N(C6CCC(=O)NC6=O)C7=O)CC4)C5)n3)C2)C1=O (stereo partly drawn) [Compound 9] | 12 | 86.5 | – | – | – | –
NC(=O)c1ncc(N2CCCCC2)nc1Nc1ccc2c(c1)CCN(C1CN(c3ccc4c(c3)C(=O)N(C3CCC(=O)NC3=O)C4=O)C1)C2 (racemic) [Compound 2, rac-3-{[2-(1-{2-[(3R)-2,6-dioxopiperidin-3-yl]-1,3-dioxoisoindol-5-yl}azetidin-3-yl)-3,4-dihydro-1H-isoquinolin-6-yl]amino}-5-(piperidin-1-yl)pyrazine-2-carboxamide] | 5.2 | 94.7 | – | – | – | –
CN1CCN([C@@H]2CCCN(c3cnc(C(N)=O)c(Nc4ccc(C5CN(C6CCN(c7ccc8c(c7)C(=O)N(C7CCC(=O)NC7=O)C8=O)CC6)C5)cc4)n3)C2)C1=O (stereo partly drawn) [Compound 11] | 20 | 78.7 | – | – | – | –
CN1CCN([C@@H]2CCCN(c3cnc(C(N)=O)c(Nc4ccc5c(c4)CCN(C4CN(c6ccc7c(c6)C(=O)N(C6CCC(=O)NC6=O)C7=O)C4)C5)n3)C2)C1=O (stereo partly drawn) [Compound 8] | 1 | 98.4 | – | – | – | –
CN1CCN([C@@H]2CCCN(c3cnc(C(N)=O)c(Nc4ccc(C5CCN(CCCNc6cccc7c6C(=O)N(C6CCC(=O)NC6=O)C7=O)CC5)cc4)n3)C2)C1=O (stereo partly drawn) [Compound 4] | 8 | 87 | – | – | – | –
CN1CCN([C@@H]2CCCN(c3cnc(C(N)=O)c(Nc4ccc(N5CC6(C5)CN(c5ccc7c(c5)C(=O)N(C5CCC(=O)NC5=O)C7=O)C6)cc4)n3)C2)C1=O (stereo partly drawn) [Compound 10] | 9 | 83.1 | – | – | – | –
CN1CCN([C@@H]2CCCN(c3cnc(C(N)=O)c(Nc4ccc(C5CCN(C6CN(c7ccc8c(c7)C(=O)N(C7CCC(=O)NC7=O)C8=O)C6)CC5)cc4)n3)C2)C1=O (stereo partly drawn) [Compound 15] | 17 | 74.7 | – | – | – | –
